# Experimental data taken from US12692237B2, “Continuous method for preparing tricyanoimidazole” (UCHICAGO ARGONNE, LLC, priority 2022, dated 2026).
# What was measured:
# [1] = Solvent screening: solubility of DCI-NH2 slurried in acetonitrile plus various solvents; format: physicochemical; conditions: for Solubility, +100 uL solvent / Solubility, +200 uL water: +100 uL solvent
# Procedure: Samples of DCI-NH2 (40 mg) were slurried in acetonitrile (0.25 ml) plus various solvents (0.05 ml).
# [2] = as above; format: physicochemical; conditions: 40 mg in MeCN:water = 0.5:0.2 mL
# [3] = 40 mg in acetonitrile 0.25 ml + NMP 0.05 ml
# [4] = 40 mg in acetonitrile 0.25 ml + Nitromethane 0.05 ml
# [5] = 40 mg in acetonitrile 0.25 ml + Propylene carbonate 0.05 ml
# [6] = 40 mg in acetonitrile 0.25 ml + Sulfolane 0.05 ml
smiles,measurement,setting,value
"N#Cc1nc(N)[nH]c1C#N [DCI-NH2, 2-amino-1H-imidazole-4,5-dicarbonitrile]",Solubility,[1]; 40 mg in acetonitrile 0.25 ml + Diglyme 0.05 ml,soluble
same,Solubility,[1]; 40 mg in acetonitrile 0.25 ml + Dmso 0.05 ml,soluble
same,Solubility,[1]; [3],partial
same,"Solubility, +100 uL solvent",[1]; [3],soluble
same,Solubility,[1]; [4],No
same,"Solubility, +100 uL solvent",[1]; [4],No
same,"Solubility, +200 uL water",[1]; [4],No
same,Solubility,[1]; [5],No
same,"Solubility, +100 uL solvent",[1]; [5],No
same,"Solubility, +200 uL water",[1]; [5],soluble
same,Solubility,[1]; [6],No
same,"Solubility, +100 uL solvent",[1]; [6],No
same,"Solubility, +200 uL water",[1]; [6],soluble
same,Solubility,[2],soluble
